Values joined by “and” are separate entries in the source; they are usually repeats but may differ in a detail not shown here. Identical values can stand only once.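 Five concentrations, 48 hours, 96-well plates. Abbreviation: GI50, concentration required for 50% inhibition of growth. TGI: total growth inhibition.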

What all share (experiment): NCI tumour cell line growth inhibition, 48 h
The subject of experiment [1] is DLD-1 colon.
The subject of experiment [2] is SNB-78 CNS.
Experiment [3] relates to HOP-18 NSCLC.
Experiment [4] deals with XF 498 CNS.
The test system of experiment [5] is M19-MEL melanoma.
Experiment [6] has as its system MDA-N.
Experiment [7] deals with DMS 273 small cell lung.
Experiment [8] concerns DMS 114 small cell lung.
Experiment [9] has as its system RXF-631 renal.
In experiment [10] the test system is P388 leukemia.

For `CCC/C(=N\NC(=S)N1CC2CCC(CC2)C1)c1ccccn1`, the TGI in [1] is 3.33 µM; in experiment [2], 8.71 µM; in [3], 0.44 µM and 0.898 µM; in experiment [4], 0.0981 µM and 0.53 µM; in experiment [5] it was 0.298 µM and 1.46 µM; in experiment [6] it was 2.72 µM. The TGI in [7] is 0.374 µM and 2.35 µM. The GI50 is 0.408 µM in [2], 0.0675 µM in experiment [3] and 0.0106 µM in [4].
Turning to `O=C(c1ccccc1)C1OC12C(=O)Nc1c(Cl)cc(Cl)cc12` (configuration not stated), the TGI in experiment [1] is 45.7 µM; in experiment [8] it was above 100 µM; in experiment [9], above 100 µM; in experiment [2] it was 99.9 µM; in [3], above 100 µM; in experiment [4], 65.1 µM. Moreover, the TGI in experiment [5] is above 77.6 µM; in experiment [7], 47.7 µM.
Turning to `O=C(O)CCC(N=Cc1nc(-c2ccccc2)oc1O)C(=O)O` (configuration not stated), the TGI in [1], in [8], in experiment [9], in [2], in experiment [3] and in experiment [5] was above 100 µM each time. In [7], this molecule returned a TGI above 100 µM.
On to `CC(C)([NH-])CO.CC(C)([NH-])CO.[Cl][Cd][Cl]`, for which the GI50 is 19.8 µM in experiment [8], 20.4 µM in experiment [4], 16.9 µM in experiment [5] and 13.5 µM in experiment [7]. The TGI was determined as 46.7 µM in [8], 69.1 µM in [4], 38.3 µM in experiment [5] and 30.2 µM in experiment [7].
For the molecule `NC(=O)/N=C1/CCC2C3CCCC2C13`, the TGI in experiment [1], in experiment [8], in [2], in experiment [3], in experiment [4] and in [7] was above 100 µM in each case.
Take `O=c1[nH]c(=S)[nH]c2c1CN(CCCN1CCOCC1)CN2`: in experiment [6], the TGI is above 100 µM.
Still for that read-out and setting: for `COc1cc(N(C)C)c(OC)cc1/C=C\c1ccnc2ccccc12` the value was 3.97 µM; for `CC1CCCC(C(O)CC2CC(=O)NC(=O)C2)C1O` (configuration not stated), above 100 µM.
Take `O=C(CCN1CCN(c2ccccc2)CC1)N1CCc2c([nH]c3ccccc23)C1c1cccnc1` (configuration not stated): the TGI amounted to 36.2 µM in [1]; 27 µM in experiment [8]; 37 µM in experiment [2]; 36.1 µM in experiment [3]; 37.1 µM in experiment [5]; 32.3 µM in experiment [7].
Turning to `CN1C(=O)C2C3C=C4c5ccccc5N(c5ccccc5)C4(C2C1=O)[C@H]1C(=O)N(C)C(=O)[C@@H]31` (some centres not stated), the TGI in [1], in experiment [8], in experiment [4] and in experiment [5] was above 100 µM each time.
For `COC(=O)C(C(=O)OC)C1CCCC(=O)C1` (configuration not stated), the TGI in [1], in experiment [2], in [3], in [4], in [5] and in experiment [7] was above 100 µM each time.
`C/C(CC(=O)Nc1ccc(C)c(C)c1)=N\NC(N)=O`: the TGI in experiment [1], in experiment [8], in [2] and in [5] was above 100 µM each time.
For the molecule `Cn1cnc([N+](=O)[O-])c1Sc1nccn1-c1cccc2ccccc12`, the TGI in experiment [1] is 98.5 µM; in experiment [8], 62 µM; in experiment [9] it was 84.2 µM; in [2] it was 77.9 µM; in experiment [3] it was 8.89 µM; in experiment [4], 58.9 µM. The TGI in experiment [5] was found to be 98.9 µM; in experiment [7], 79.8 µM.
On to `CC(=O)C1C(c2ccc(N(C)C)cc2)c2cc3c(cc2OC1(C)O)OCO3` (configuration not stated), for which the TGI in experiment [1] was above 100 µM; in [8] it was 93.3 µM; in [2] it was above 100 µM; in experiment [3], above 100 µM; in experiment [4] it was above 100 µM; in experiment [5] it was above 100 µM. Moreover, the TGI in experiment [7] was above 100 µM.
With `COc1ccc(-c2cc(=O)c3cc(OC)ccc3[nH]2)cc1`, the TGI in experiment [1], in [8], in experiment [2], in experiment [3] and in [5] was above 100 µM throughout.
On to `Oc1ccc2ccccc2c1N=Nc1ccsc1`, for which the TGI in experiment [1], in [8], in experiment [9], in experiment [2], in [3] and in [5] was above 100 µM throughout. The molecule also yielded a TGI in experiment [7] above 100 µM.
`COc1c2ccoc2c(OC)c2oc(=O)ccc12` yielded a TGI in [6] above 100 µM.
With `Cc1cccc(C(C)(C)C)c1NC(=O)CC1C(=O)Nc2ccccc2S1(=O)=O` (configuration not stated), the TGI in experiment [1] is 18.3 µM; in experiment [2] it was 22.1 µM; in experiment [4], 23.1 µM; in [5], 24.8 µM; in [7], 14.9 µM.
In the case of `CC(C)=CCC/C(C)=C/CC/C(C)=C/CSc1ccccc1C(=O)O`, the TGI in experiment [6] worked out at 57.8 µM.
Same read-out and setting: next, `Cn1cnc([N+](=O)[O-])c1Sc1nc(N)nc2c1ncn2C1CC(O)C(CO)O1` (configuration not stated): above 100 µM; `C/C(=N\NS(=O)(=O)c1ccc(C)cc1)P(=O)(O)O`: above 100 µM.
Consider `CC(=O)OC[C@@H](COC(=O)/C=C/c1ccc(O)cc1)OC1OC(CO)C(O)C(O)C1O` (some centres not stated), for which the TGI in [1], in experiment [9], in experiment [2], in experiment [3], in experiment [4] and in experiment [5] was above 100 µM each time.
Consider `COc1cc(-c2cc(O)c(-c3ccc4ccccc4n3)c(=O)[nH]2)cc(OC)c1OC`, for which the TGI in experiment [6] is 34.9 µM.
With `CC(Nc1ccc(S(=O)(=O)N=C(N)N)cc1)c1c2ccccc2nc2ccccc12` (configuration not stated), the TGI in experiment [1] was above 100 µM; in experiment [8] it was above 100 µM; in experiment [9], 96.6 µM; in experiment [4] it was 36.1 µM; in experiment [5] it was above 100 µM; in experiment [7], above 100 µM.
Turning to `COC(=O)c1cccn1C(=O)n1cccc1`, the TGI in experiment [1], in experiment [8], in [2], in [3], in experiment [4] and in experiment [5] was above 100 µM in each case. The same molecule had a TGI in experiment [7] above 100 µM.
In the case of `C/C1=C/C(=O)O[C@@H]2C[C@@H](CC[C@H](C)/C=C\C=C\CC1)O[C@@](O)([C@@H]1CSC(=O)N1)C2`, the TGI in experiment [6] was above 10 µM.
For `O=c1c(Br)cc2nc3ccccc3sc-2c1Br`, the TGI in [1] is above 100 µM; in [8] it was 34.6 µM; in experiment [9], above 100 µM; in [2] it was above 100 µM; in experiment [4], 61.8 µM; in [5] it was 32.4 µM. For the same molecule, the TGI in experiment [7] was above 100 µM.
`COc1ccc2ccccc2c1C1NC(=O)c2ccccc2N1` (configuration not stated) registered a TGI in experiment [6] of 0.413 µM.
With `Nc1nnnn1CCO`, the TGI in experiment [6] is above 100 µM.
Take `O=C(O)C1(C(=O)O)CCC1.[NH2-].[NH2-].[Pt+2]`: the GI50 in [10] was 15.4 µM; in experiment [1], 206 µM; in experiment [2] it was 96.4 µM; in experiment [3], > 77.3 µM and 111 µM; in [6], 182 µM and > 220 µM; in experiment [7], 64.7 µM. Moreover, the TGI in [10] is 169 µM; in experiment [1] it was above 237 µM; in experiment [2], 217 µM; in experiment [3] it was 118 µM; in experiment [6], above 250 µM; in experiment [7], 228 µM.
As to `CC(=O)OC(C)(C)/C(C)=C/C(=O)O[C@H]1C(=O)O[C@@H]2C[C@H]3[C@H](C)C(=O)C(O[C@@H]4O[C@H](CO)[C@@H](O)[C@H](O)[C@H]4O)=C[C@]3(C)[C@H]3[C@@H](O)[C@H](O)[C@@]4(C(=O)O)OC[C@]32[C@@H]14`, in [6], the GI50 was above 100 µM and the TGI was above 100 µM.
With `CCOC(=O)N1CCC(=O)C(CNC23CC4CC(CC(C4)C2)C3)C1` (configuration not stated), the TGI was 46.4 µM in experiment [1]; above 100 µM in [9]; 32.8 µM in experiment [4]; 35.3 µM in experiment [5]; 52.9 µM in experiment [7].
`Cc1ccc(NC(=O)CC2Sc3ccccc3NC2=O)c(C)c1` (configuration not stated): the TGI was determined as 31 µM in [1]; 51.7 µM in experiment [8]; 33.1 µM in [9]; 63.2 µM in experiment [2]; 30.2 µM in experiment [3]; 37.5 µM in [4]. For the same molecule, the TGI in [5] turned out to be 48.2 µM; in experiment [7] it was 37.5 µM.
Turning to `COC(=O)C(C(=O)C(=O)Nc1ccc([N+](=O)[O-])cc1[N+](=O)[O-])c1nc2ccc(Cl)cc2[nH]c1=O` (configuration not stated), the TGI in experiment [1], in experiment [8], in [2], in experiment [3], in experiment [4] and in [5] was above 100 µM in each case. Besides, the TGI in experiment [7] was above 100 µM.
`CC(C)O/N=C/c1cc(NC(=S)OC(C)C)ccc1Cl` displayed a TGI in experiment [6] above 100 µM.
As for `Cc1ccc(S(=O)(=O)NC2(C=O)CCCC3CCCCC32)cc1` (configuration not stated), the TGI in [1], in experiment [8], in experiment [9], in [2], in experiment [3] and in experiment [5] was above 100 µM throughout. The molecule further showed a TGI in [7] above 100 µM.
For the molecule `CCC[CH2][Sn]1([CH2]CCC)[O]CC(CN(C)Cc2ccccc2)[O]1` (configuration not stated), the GI50 in [1] was 12.3 µM; in experiment [8], 4.73 µM; in experiment [2] it was 2.14 µM; in experiment [4], 3.33 µM; in experiment [5] it was 6.73 µM; in experiment [7] it was 4.93 µM. In addition, the TGI is 26.1 µM in [1]; 14.3 µM in experiment [8]; 10.8 µM in experiment [2]; 9.77 µM in experiment [4]; 19.8 µM in experiment [5]; 20.5 µM in experiment [7].
Regarding `Oc1ccc(C(c2ccc(O)cc2)c2ccc(O)cc2)cc1`, the TGI in [6] amounted to 56 µM.
Still for that read-out and setting: for `CCOC(=O)C1c2[nH]c3ccccc3c2CCN1C(=O)c1ccc(OC)o1` (configuration not stated) the value was above 10 µM.
On to `O=c1ncc(F)cn1C1OC(CO)C(O)C1O` (configuration not stated), for which the TGI in experiment [1] was above 100 µM; in experiment [8] it was above 41.9 µM; in experiment [9] it was above 100 µM; in [2], above 100 µM; in experiment [3], above 100 µM; in [4], above 100 µM. The TGI in experiment [5] is above 54 µM; in experiment [7], above 44.6 µM.

The values above are taken from PubChem BioAssay (NCI).
